As usually defined, the Ki is the equilibrium dissociation constant of an inhibitor or competing ligand from its target.

In one assay the target is MCH-1R (UniProt Q99705). Briefly: MCH-1R competition binding assay. The protocol:
In vitro binding and function assays are performed on membranes derived from cells or tissues expressing endogenous MCH1R. Competition binding assays are performed to identify high affinity compounds. Briefly, either radiolabeled or europium labeled MCH with varying concentrations of competitor compound which are incubated with membranes expressing the receptor. Rat brain membrane or cell lines, including but not limited to human Kelly neuroblastoma cells, A-431 epidermoid cells, and rat PC-12 cells are known to express endogenous MCH1R and are used in the assay. Binding is allowed to proceed until equilibrium is reached then bound labeled MCH is separated from free MCH by capturing membranes onto a filter. The filters are washed to remove loosely associated MCH and labeled MCH is quantified. Data is analyzed and IC50 and Ki are calculated to determine compound affinity.

In a further assay the target is T1, 5-HT2c receptor (Homo sapiens, UniProt P28335).
T1 construct: purchased Perkin-Elmer or Euroscreen (named only as possible suppliers)
T1 sequence (P28335 33-458): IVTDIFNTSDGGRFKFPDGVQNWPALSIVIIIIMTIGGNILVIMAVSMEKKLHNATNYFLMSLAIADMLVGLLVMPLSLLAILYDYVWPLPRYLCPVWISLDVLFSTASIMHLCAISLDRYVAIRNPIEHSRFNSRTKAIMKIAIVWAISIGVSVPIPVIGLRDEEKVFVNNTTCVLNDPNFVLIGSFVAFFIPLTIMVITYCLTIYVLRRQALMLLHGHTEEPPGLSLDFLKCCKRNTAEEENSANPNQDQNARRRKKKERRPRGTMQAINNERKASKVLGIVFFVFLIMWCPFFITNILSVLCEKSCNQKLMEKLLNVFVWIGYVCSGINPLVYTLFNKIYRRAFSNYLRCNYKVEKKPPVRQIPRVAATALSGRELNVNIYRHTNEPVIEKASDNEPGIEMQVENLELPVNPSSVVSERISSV
Put plainly: 5-HT2c receptor binding assay (3H-mesulergine competition). The protocol: MCH antagonist compounds are evaluated for binding to the serotonin 5-HT2c receptor to determine receptor selectivity. Binding activity is assessed using a competitive assay with ^3H-mesulergine (Perkin Elmer), a 5-HT2c selective ligand, on membrane containing the 5-HT2c receptor. Briefly, 1 nM ^3H-mesulergine and varying concentrations of the compound are incubated with 5-HT2c receptor membranes, following an incubation period, the membranes are washed and ^3H-mesulergine bound to membranes is measured in a liquid scintillation counter. The amount of bound ^3H-mesulergine at the varying concentration of competitor compound is used to derive the affinity (Ki) of the compound for the 5-HT2c receptor. 5-HT2c receptor containing membranes are readily available from several companies including Perkin-Elmer and Euroscreen.

Setting [1] is: 1 nM 3H-mesulergine, read-out: Ki (nM) binding data 5-HT2C.

Read-outs that look alike come from different tables or passages of the source.

As to `CC(=O)N1CCN(Cc2ccc3c(c2)CC[C@H](n2cnc4cc(-c5ccc(F)c(F)c5)sc4c2=O)C3)CC1` [(S)-3-[6-(4-Acetylpiperazin-1-ymethyl)-1,2,3,4-tetrahydronapthalen-2-yl]-6-(3,4-difluorophenyl)thieno[3,2-d]pyrimidin-4(3H)-one], the Ki on MCH-1R is 36.6 nM; at 5-HT2c receptor (setting [1]), over 100000 nM.

For `COc1cncc(-c2cc3ncn([C@H]4CCc5cc(CN6CCN(S(C)(=O)=O)CC6)ccc5C4)c(=O)c3s2)c1`, the Ki on MCH-1R is 17.9 nM; on 5-HT2c receptor, over 100000 nM. Take `CC(=O)N1CCN(Cc2ccc3c(c2)CC[C@H](n2cnc4cc(-c5ccc(C#N)cc5)sc4c2=O)C3)CC1` [(S)-4-(3-(6-((4-acetylpiperazin-1-yl)methyl)-1,2,3,4-tetrahy] [(S)-4-(3-(6-((4-acetylpiperazin-1-yl)methyl)-1,2,3,4-tetrahydronaphthalen-2-yl)-4-oxo-3,4-dihydrothieno[3,2-d]pyrimidin-6-yl)benzonitrile]: the Ki at MCH-1R is 397 nM; on 5-HT2c receptor (setting [1]), over 100000 nM. `CC(=O)N1CCN(Cc2ccc3c(c2)CC[C@H](n2cnc4cc(-c5cncc(Cl)c5)sc4c2=O)C3)CC1` [(S)-3-[6-(4-Acetylpiperazin-1-ymethyl)-1,2,3,4-tetrahydronapthalen-2-yl]-6-(5-chloropyridin-3-yl)thieno[3,2-d]pyrimidin-4(3H)-one]: the Ki on MCH-1R is 38 nM; on 5-HT2c receptor (setting [1]), over 100000 nM. Taken in the same sequence, the figures for `CS(=O)(=O)N1CCN(Cc2ccc3c(c2)CC[C@H](n2cnc4cc(-c5ccsc5)sc4c2=O)C3)CC1` were 60 nM and over 100000 nM. On to `CN1CCN(C2CCN(Cc3ccc4c(c3)CC[C@H](n3cnc5cc(-c6ccc(Cl)cc6)sc5c3=O)C4)CC2)CC1` [(S)-6-(4-Chlorophenyl)-3-(6-{[4-(4-methylpiperazin-1-yl)piperidin-1-yl]methyl}-1,2,3,4-tetrahydronapthalen-2-yl)thieno[3,2-d]pyrimidin-4(3H)-one], for which the Ki on MCH-1R was 42 nM; at 5-HT2c receptor (setting [1]) it was 4790 nM. Turning to `CS(=O)(=O)CCNCc1ccc2c(c1)CC[C@H](n1cnc3cc(-c4ccc(Cl)cc4)sc3c1=O)C2` [6-(4-Chlorophenyl)-3-{(S)-6-[(2-methanesulfonyl-ethylamino)methyl]-1,2,3,4-tetrahydronapthealen-2-yl}thieno[3,2-d]pyrimidin-4(3H)-one], the inhibitory constant (Ki) on MCH-1R was 22.6 nM; on 5-HT2c receptor (setting [1]), over 100000 nM. The molecule `CC(=O)N1CCN(Cc2ccc3c(c2)CC[C@H](n2cnc4cc(-c5ccc(C#N)cc5)sc4c2=O)C3)CC1` [(S)-3-[6-(4-Acetylpiperazin-1-ymethyl)-1,2,3,4-tetrahydronap] [(S)-3-[6-(4-Acetylpiperazin-1-ymethyl)-1,2,3,4-tetrahydronapthalen-2-yl]-6-(4-cyanophenyl)thieno[3,2-d]pyrimidin-4(3H)-one] registered a Ki on MCH-1R of 34 nM.

On to `CC(=O)N1CC2CC1CN2Cc1ccc2c(c1)CC[C@H](n1cnc3cc(-c4ccc(Cl)cc4)sc3c1=O)C2` (stereo partly drawn) [(S)-6-(4-Chlorophenyl)-3-[6-(5-acetyl-2,5-diaza-bicyclo[2.2.1]hept-2-ylmethyl)-1,2,3,4-tetrahydronaphthalen-2-yl)thieno[3,2-d]pyrimidin-4(3H)-one], for which the figures for the Ki at MCH-1R and on 5-HT2c receptor (setting [1]) were 1.8 nM and over 100000 nM, respectively. Consider `CC(=O)N1CCN(Cc2ccc3c(c2)CC[C@H](n2cnc4cc(-c5ccc(C#N)cc5)sc4c2=O)C3)CC1` [(S)-3-[6-(4-Acetylpiperazin-1-ymethyl)-1,2,3,4-tetrahydronapthalen-2-yl]-6-(4-cyanophenyl)thieno[3,2-d]pyrimidin-4(3H)-one], for which the Ki at 5-HT2c receptor (setting [1]) was over 100000 nM. Turning to `CC(=O)N1CCN(Cc2ccc3c(c2)CC[C@H](n2cnc4cc(-c5cc(F)cc(F)c5)sc4c2=O)C3)CC1` [(S)-3-[6-(4-Acetylpiperazin-1-ymethyl)-1,2,3,4-tetrahydronapthalen-2-yl]-6-(3,5-difluorophenyl)thieno[3,2-d]pyrimidin-4(3H)-one], the figures for the inhibitory constant (Ki) at MCH-1R and on 5-HT2c receptor (setting [1]) were 369 nM and over 100000 nM, respectively. Take `CS(=O)(=O)N1CCN(Cc2ccc3c(c2)CC[C@H](n2cnc4cc(-c5ccc(F)cc5F)sc4c2=O)C3)CC1`: the figures for the inhibition constant (Ki) on MCH-1R and on 5-HT2c receptor (setting [1]) were 7.6 nM and over 100000 nM, respectively. The like results for `CC(=O)N1CCN(Cc2ccc3c(c2)CC[C@H](n2cnc4cc(-c5ccc(Cl)cc5)sc4c2=O)C3)CC1` [(S)-3-(6-((4-Acetylpiperazin-1-yl)methyl)-1,2,3,4-tetrahydronapthalen-2-yl)-6-(4-chlorophenyl)thieno[3,2-d]pyrimidine-4(3H)-one] were, in that order, 35 nM and 14600 nM. The like results for `CC(=O)N1CCN(Cc2ccc3c(c2)CC[C@H](n2cnc4cc(-c5ccc(F)cc5)sc4c2=O)C3)CC1` [(S)-3-[6-(4-Acetylpiperazin-1-ymethyl)-1,2,3,4-tetrahydronapthalen-2-yl]-6-(4-fluorophenyl)thieno[3,2-d]pyrimidin-4(3H)-one] were, in that order, 9.4 nM and 6360 nM. The like results for `CC(=O)N1CCN(Cc2ccc3c(c2)CC[C@H](n2cnc4cc(-c5ccc(Cl)c(Cl)c5)sc4c2=O)C3)CC1` [(S)-3-[6-(4-Acetylpiperazin-1-ymethyl)-1,2,3,4-tetrahydronapthalen-2-yl]-6-(3,4-dichlorophenyl)thieno[3,2-d]pyrimidin-4(3H)-one] were, in that order, 54.5 nM and over 100000 nM. As for “(S)-6-(4-Chlorophenyl)-3-(6-((4-morpholinopiperidin-1-yl)methyl)-1,2,3,4-tetrhaydronapthalene-2-yl)thieno[3,2,-d]pyrimidin-4-(3H)-one”, the Ki on MCH-1R was 16 nM; on 5-HT2c receptor (setting [1]) it was over 100000 nM. With `CC(=O)N1CCN(Cc2ccc3c(c2)CC[C@H](n2cnc4cc(-c5cccnc5F)sc4c2=O)C3)CC1` [(S)-3-[6-(4-Acetylpiperazin-1-ymethyl)-1,2,3,4-tetrahydronapthalen-2-yl]-6-(2-fluoropyridin-3-yl)thieno[3,2-d]pyrimidin-4(3H)-one], the values for the Ki on MCH-1R and at 5-HT2c receptor (setting [1]) were 813 nM and over 100000 nM, respectively. The like results for `CC(=O)N1CCN(Cc2ccc3c(c2)CC[C@H](n2cnc4cc(-c5ccnc(Cl)c5)sc4c2=O)C3)CC1` [(S)-3-[6-(4-Acetylpiperazin-1-ymethyl)-1,2,3,4-tetrahydronapthalen-2-yl]-6-(2-chloropyridin-4-yl)thieno[3,2-d]pyrimidin-4(3H)-one] were, in that order, 496 nM and over 100000 nM.

Regarding `CS(=O)(=O)C1CCN(Cc2ccc3c(c2)CC[C@H](n2cnc4cc(-c5ccc(Cl)cc5)sc4c2=O)C3)CC1` [6-(4-Chlorophenyl)-3-[(S)-6-(4-methanesulfonylpiperidin-1-ylmethyl)-1,2,3,4-tetrahydronapthealen-2-yl}thieno[3,2-d]pyrimidin-4(3H)-one], the Ki at MCH-1R is 8.2 nM; on 5-HT2c receptor (setting [1]) it was over 100000 nM.

For `CS(=O)(=O)N1CCN(Cc2ccc3c(c2)CC[C@H](n2cnc4cc(-c5cccs5)sc4c2=O)C3)CC1`, the results for the inhibition constant (Ki) at MCH-1R and on 5-HT2c receptor (setting [1]) were 122 nM and over 100000 nM, respectively.

In the case of `O=c1c2sc(-c3ccc(Cl)cc3)cc2ncn1[C@H]1CCc2cc(CN3CC[C@H](O)C3)ccc2C1` [6-(4-Chlorophenyl)-3-{(S)-6-[((S)-3-hydroxypyrrolidin-1-yl)methyl]-1,2,3,4-tetrahydronaphthalen-2-yl}thieno[3,2-d]pyrimidin-4(3H)-one], the inhibitory constant (Ki) came out at 24 nM on MCH-1R and 9550 nM on 5-HT2c receptor (setting [1]).

As for `CS(=O)(=O)N1CCN(Cc2ccc3c(c2)CC[C@H](n2cnc4cc(-c5cc(F)cc(F)c5)sc4c2=O)C3)CC1`, the inhibition constant (Ki) at MCH-1R was 117 nM; at 5-HT2c receptor (setting [1]), over 100000 nM.

Values taken from US20070299062A1 (The Procter & Gamble Company, priority 2006, published 2007).
